Reference: patent publication US20160038468A1 (priority 2013, published 2016)
Converted amounts (≈) assume the structure as drawn. Like-named read-outs stand apart in the source and are kept apart here.

Assays:
Prevotella amnii = test: Agar dilution MIC (CLSI), Prevotella amnii vaginal isolates; format: cell-based; conditions: for Number of strains with indicated MIC: 33 samples; for MIC: read-out: Minimal Inhibitory Concentration (MIC)
Atopobium vaginae = test: Agar dilution MIC (CLSI), Atopobium vaginae vaginal isolates; format: cell-based; conditions: for Number of strains with indicated MIC: 62 samples
vaginal infections = conditions: daily dosage less than 100 mg/day; cited from earlier work
Finegoldia magna = test: Agar dilution MIC (CLSI), Finegoldia magna vaginal isolates; format: cell-based; conditions: for MIC: read-out: Minimal Inhibitory Concentration (MIC)
[1] = Fannyhessea vaginae, # tested 62

CO[C@H]1/C=C/O[C@@]2(C)Oc3c(C)c(O)c4c(O)c(c5c(nc6cc(C)ccn65)c4c3C2=O)NC(=O)/C(C)=C\C=C\[C@H](C)[C@H](O)[C@@H](C)[C@@H](O)[C@@H](C)[C@H](OC(C)=O)[C@@H]1C [Rifaximin]
MIC Range (Prevotella amnii; # tested 33): 0.015 to 0.03 µg/mL
Number of strains with indicated MIC (Prevotella amnii; MIC 0.015 μg/ml): 19
Number of strains with indicated MIC (Prevotella amnii; MIC 0.03 μg/ml): 14
MIC (Prevotella amnii; Prevotella amnii, isolate 601203 4): 0.015 µg/mL (≈ 0.0191 µM)
MIC (Prevotella amnii; Prevotella amnii, isolate 601256 11): 0.03 µg/mL (≈ 0.0382 µM)
MIC (Prevotella amnii; Prevotella amnii, isolate 601258 25): 0.015 µg/mL (≈ 0.0191 µM)
MIC (Prevotella amnii; Prevotella amnii, isolate 601261 E): 0.015 µg/mL (≈ 0.0191 µM)
MIC (Prevotella amnii; Prevotella amnii, isolate 601266 20): 0.03 µg/mL (≈ 0.0382 µM)
MIC (Prevotella amnii; Prevotella amnii, isolate 601278 10): 0.015 µg/mL (≈ 0.0191 µM)
MIC (Prevotella amnii; Prevotella amnii, isolate 601287 HH): 0.015 µg/mL (≈ 0.0191 µM)
MIC (Prevotella amnii; Prevotella amnii, isolate 601291 41): 0.015 µg/mL (≈ 0.0191 µM)
MIC (Prevotella amnii; Prevotella amnii, isolate 601293 29): 0.03 µg/mL (≈ 0.0382 µM)
MIC (Prevotella amnii; Prevotella amnii, isolate 601305 A): 0.03 µg/mL (≈ 0.0382 µM)
MIC (Prevotella amnii; Prevotella amnii, isolate 601311 K): 0.03 µg/mL (≈ 0.0382 µM)
MIC (Prevotella amnii; Prevotella amnii, isolate 601314 19): 0.03 µg/mL (≈ 0.0382 µM)
MIC (Prevotella amnii; Prevotella amnii, isolate 601318 G): 0.03 µg/mL (≈ 0.0382 µM)
MIC (Prevotella amnii; Prevotella amnii, isolate 601336 33): 0.015 µg/mL (≈ 0.0191 µM)
MIC (Prevotella amnii; Prevotella amnii, isolate 601340 37): 0.015 µg/mL (≈ 0.0191 µM)
MIC (Prevotella amnii; Prevotella amnii, isolate 601341 H): 0.015 µg/mL (≈ 0.0191 µM)
MIC (Prevotella amnii; Prevotella amnii, isolate 601350 A): 0.015 µg/mL (≈ 0.0191 µM)
MIC (Prevotella amnii; Prevotella amnii, isolate 601365 6): 0.015 µg/mL (≈ 0.0191 µM)
MIC (Prevotella amnii; Prevotella amnii, isolate 601368 24): 0.015 µg/mL (≈ 0.0191 µM)
MIC (Prevotella amnii; Prevotella amnii, isolate 601369 13): 0.03 µg/mL (≈ 0.0382 µM)
MIC (Prevotella amnii; Prevotella amnii, isolate 601375 L): 0.015 µg/mL (≈ 0.0191 µM)
MIC (Prevotella amnii; Prevotella amnii, isolate 601377 9): 0.03 µg/mL (≈ 0.0382 µM)
MIC (Prevotella amnii; Prevotella amnii, isolate 601379 24): 0.03 µg/mL (≈ 0.0382 µM)
MIC (Prevotella amnii; Prevotella amnii, isolate 601388 G): 0.03 µg/mL (≈ 0.0382 µM)
MIC (Prevotella amnii; Prevotella amnii, isolate 601399 10): 0.015 µg/mL (≈ 0.0191 µM)
MIC (Prevotella amnii; Prevotella amnii, isolate 601405 A): 0.015 µg/mL (≈ 0.0191 µM)
MIC (Prevotella amnii; Prevotella amnii, isolate 601411 L): 0.03 µg/mL (≈ 0.0382 µM)
MIC (Prevotella amnii; Prevotella amnii, isolate 601413 10): 0.015 µg/mL (≈ 0.0191 µM)
MIC (Prevotella amnii; Prevotella amnii, isolate 601418 27): 0.03 µg/mL (≈ 0.0382 µM)
MIC (Prevotella amnii; Prevotella amnii, isolate 601426 A): 0.015 µg/mL (≈ 0.0191 µM)
MIC (Prevotella amnii; Prevotella amnii, isolate 601430 14): 0.015 µg/mL (≈ 0.0191 µM)
MIC (Prevotella amnii; Prevotella amnii, isolate 601434 13): 0.015 µg/mL (≈ 0.0191 µM)
MIC (Prevotella amnii; Prevotella amnii, isolate 601458 13): 0.03 µg/mL (≈ 0.0382 µM)
MIC50 (Prevotella amnii; Prevotella amnii, # tested 33): 0.015 µg/mL (≈ 0.0191 µM)
MIC90 (Prevotella amnii; Prevotella amnii, # tested 33): 0.03 µg/mL (≈ 0.0382 µM)
number of Atopobium vaginae strains against which the agent had activity (Atopobium vaginae): 62 strains
MIC Range (Atopobium vaginae; # tested 62): 0.00375 to 0.25 µg/mL
MIC50 (Atopobium vaginae; [1]): 0.00375 µg/mL (≈ 0.00477 µM)
MIC90 (Atopobium vaginae; [1]): 0.015 µg/mL (≈ 0.0191 µM)
Number of strains with indicated MIC (Atopobium vaginae; MIC 0.00375 μg/ml): 43
Number of strains with indicated MIC (Atopobium vaginae; MIC 0.0075 μg/ml): 10
Number of strains with indicated MIC (Atopobium vaginae; MIC 0.015 μg/ml): 5
Number of strains with indicated MIC (Atopobium vaginae; MIC 0.06 μg/ml): 1
efficacy in the treatment of vaginal infections (vaginal infections): efficacious
MIC Range (Finegoldia magna; # tested 20): 0.125 to 16 µg/mL
MIC (Finegoldia magna; Finegoldia magna, isolate 301303V D): 4 µg/mL (≈ 5.09 µM)
MIC (Finegoldia magna; Finegoldia magna, isolate 601205V 39): 4 µg/mL (≈ 5.09 µM)
MIC (Finegoldia magna; Finegoldia magna, isolate 601214V F): 8 µg/mL (≈ 10.2 µM)
MIC (Finegoldia magna; Finegoldia magna, isolate 601275V c): 0.125 µg/mL (≈ 0.159 µM)
MIC (Finegoldia magna; Finegoldia magna, isolate 601276V 23): 4 µg/mL (≈ 5.09 µM)
MIC (Finegoldia magna; Finegoldia magna, isolate 601283V 14): 4 µg/mL (≈ 5.09 µM)
MIC (Finegoldia magna; Finegoldia magna, isolate 601293V 27): 4 µg/mL (≈ 5.09 µM)
MIC (Finegoldia magna; Finegoldia magna, isolate 601295V 25): 4 µg/mL (≈ 5.09 µM)
MIC (Finegoldia magna; Finegoldia magna, isolate 601298V 30): 4 µg/mL (≈ 5.09 µM)
MIC (Finegoldia magna; Finegoldia magna, isolate 601308V 24): 2 µg/mL (≈ 2.54 µM)
MIC (Finegoldia magna; Finegoldia magna, isolate 601315V 17): 8 µg/mL (≈ 10.2 µM)
MIC (Finegoldia magna; Finegoldia magna, isolate 601315V 17A): 8 µg/mL (≈ 10.2 µM)
MIC (Finegoldia magna; Finegoldia magna, isolate 601320V 24): 16 µg/mL (≈ 20.4 µM)
MIC (Finegoldia magna; Finegoldia magna, isolate 601323V K): 4 µg/mL (≈ 5.09 µM)
MIC (Finegoldia magna; Finegoldia magna, isolate 601330V c): 16 µg/mL (≈ 20.4 µM)
MIC (Finegoldia magna; Finegoldia magna, isolate 601335V c1): 4 µg/mL (≈ 5.09 µM)
MIC (Finegoldia magna; Finegoldia magna, isolate 601340V 27): 8 µg/mL (≈ 10.2 µM)
MIC (Finegoldia magna; Finegoldia magna, isolate 601359V c): 2 µg/mL (≈ 2.54 µM)
MIC (Finegoldia magna; Finegoldia magna, isolate 601363V 6): 0.25 µg/mL (≈ 0.318 µM)
MIC (Finegoldia magna; Finegoldia magna, isolate 601367V c): 16 µg/mL (≈ 20.4 µM)
MIC50 (Finegoldia magna; Finegoldia magna, # tested 20): 4 µg/mL (≈ 5.09 µM)
MIC90 (Finegoldia magna; Finegoldia magna, # tested 20): 16 µg/mL (≈ 20.4 µM)
